One data set deals with T1, bradykinin receptor (Cavia porcellus, UniProt O70526).
T1 construct: from tissue; host or cells: guinea pig terminal ileum, washed membrane homogenate
T1 sequence (O70526 1-372): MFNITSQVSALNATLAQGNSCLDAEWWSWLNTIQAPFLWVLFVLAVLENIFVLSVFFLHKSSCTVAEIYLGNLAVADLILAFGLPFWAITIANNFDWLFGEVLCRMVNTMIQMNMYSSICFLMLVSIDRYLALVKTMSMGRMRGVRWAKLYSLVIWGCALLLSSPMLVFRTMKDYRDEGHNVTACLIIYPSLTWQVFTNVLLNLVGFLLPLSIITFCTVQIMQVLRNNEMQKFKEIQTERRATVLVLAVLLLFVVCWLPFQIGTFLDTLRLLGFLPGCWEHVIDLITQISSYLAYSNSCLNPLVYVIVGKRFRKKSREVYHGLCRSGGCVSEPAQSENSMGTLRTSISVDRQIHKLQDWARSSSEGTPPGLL
As to the kind of experiment: 3H-Bradykinin binding assay, guinea pig terminal ileum homogenate. As to conditions: competition with 3H-bradykinin (~0.3 nM), guinea pig terminal ileum membranes, 90 min ambient temperature. From the text:
Binding of ^3 H-Bradykinin was preformed using the method of D. C. Manning, […], and […]. Pharmacol. Exp. Ther., (1986),237 504. The tissues used in the binding assay were terminal ileum from male Hartley guinea pigs (150-350 g). After dissection, tissues were placed in 20 vol of ice-cold buffer A (25 Mm TES containing 0.2 g/L of 1,10-phenanthroline adjusted to Ph 6.8 with ammonium hydroxide) and homogenized using a Ploytron Tissumizer at setting 6 for 15 sec. The homogenate was centrifuged at 50,000×g for 10 min, the supernatant discarded, and the pellet resuspended in ice-cold buffer A by homogenization with the Polytron. Each tissue was homogenized and centrifuged three times. The final pellet was resuspended in buffer A containing bovine serum albumin (1 g/L) and Bacitracin (0.14 g/L) to a final volume of 170 Ml/g of the original tissue weight. The binding assay consisted of 1 Ml in 12×75 mm polypropylene tubes: 50 uL ^3 H-bradykinin (20,000 dpm, ~0.3 Nm in the final assay volume), […] displacing drug in buffer A, and 750 Ul tissue homogenate. […] Tubes were incubated for 90 min at ambient temperature. The assays were terminated by filtration over Whatman GF/B glass fiber filters that had been pretreated for 2 hours with polyethyleneimine (2 g/L) using a Brandel Tissue Harvester, followed by washing with 4×1 Ml aliquots of ice-cold 50 Mm Tris, Ph 7.4. Filters were dissolved in Ready-Safe Fluor (Beckman) for at least 90 min before quantitation by liquid scintillation spectrometry. Kd values were determined using saturation binding and analysis by […]. Pharmacol. Methods, (1985), 213)], followed by LIGAND [[…], Anal. Biochem., (1980), 220]. Ki values were determined using competitive analysis followed by EBDA and LIGAND. The following test results were obtained.

Data set [1] addresses T2, bradykinin receptors on intestinal (ileal longitudinal) smooth muscle (Cavia porcellus, UniProt O70526).
T2 construct: The longitudinal muscle was separated from the underlying circular muscle; from tissue; host or cells: guinea pig ileal longitudinal smooth muscle strips
T2 sequence (O70526 1-372): T1 sequence (O70526 1-372)
As to the kind of experiment: Bradykinin antagonist activity on guinea pig ileal longitudinal smooth muscle (contraction, Schild analysis). The following applies: antagonism of bradykinin-induced contraction, guinea pig ileum longitudinal muscle, read-out: pA2 (converted). Format: cell-based. The protocol: Determination of Bradykinin Antagonist Activity
Guinea pig intestine was removed and placed in a Petri dish containing Tyrodes solution and cut into 3-4 cm segments. The longitudinal muscle was separated from the underlying circular muscle using a cotton applicator (Paton and Zar, J. Physiol. (1968), 194:13). Muscle strips were connected to isometric force-displacement transducers (Grass or Gould) coupled to a physiograph and placed in tissue baths containing Tyrode's solution at 37° C. Each preparation was suspended under a resting tension of 2 g.
After equilibration of the tissues, appropriate volumes of bradykinin solutions were cumulatively added to the 10 Ml tissue baths to increase the concentration of bradykinin in the bath step-by-step without washing out after each single dose. Higher concentrations were added only after the preceding contraction had reached a steady value. […] Antagonism of bradykinin responses in the presence of antagonist were determined by repeating the cumulative addition procedure for bradykinin after the tissue has been exposed to the antagonist for 5 minutes. Three or four differentconcentrations of antagonist are studied sequentially in the same preparations. Responses were expressed as a percentage of the maximum contraction elicited by bradykinin in the absence of antagonist. pA2 values were calculated by Schild analysis.

For data set [2] the following is noted: cited from earlier work.
The conditions of data set [3]: anesthetized rat, intra-aortic vs intravenous administration; cited from earlier work.

*1 amine or outer side, *2 acyl side, *3 side chain or, on linkers, in order; H or OH if unused. Where a SMILES comes first, the peptide text is derived from it. Where no end group is shown, it is not given here. [ ]: non-standard residue; d: D form. The star is where a group is joined. X3 = O=C([C@@H]1C[C@H](Oc2ccc([N+](=O)[O-])cc2)CN1[*:1])[*:2]; X2 = O=C([C@@H]1C[C@H](Oc2ccccc2[N+](=O)[O-])CN1[*:1])[*:2]; Pro(cis-4-OPh) = O=C(O)[C@@H]1C[C@H](Oc2ccccc2)CN1; X1 = O=C([C@@H]1C[C@H](Sc2ccccc2)CN1[*:1])[*:2]; cisHyp = O=C(O)[C@@H]1C[C@H](O)CN1; Hyp = O=C(O)[C@@H]1C[C@@H](O)CN1; Cyclohexylmethyl = C1CCC(C*)CC1; dTic = O=C(O)[C@H]1Cc2ccccc2CN1

At bradykinin receptor, `CCO[C@@H]1C[C@@H](C(=O)N[C@@H](CCCNC(=N)N)C(=O)O)N(C(=O)[C@H]2Cc3ccccc3CN2C(=O)[C@H](CO)NC(=O)[C@H](Cc2ccccc2)NC(=O)CNC(=O)[C@@H]2C[C@@H](O)CN2C(=O)[C@@H]2CCCN2C(=O)[C@H](CCCNC(=N)N)NC(=O)[C@H](N)CCCNC(=N)N)C1` [D-Arg-Arg-Pro-4Hyp-Gly-Phe-Ser-D-Tic-(Hydroxyproline trans ethyl ether)-Arg] (H-[dR]RP[Hyp]GFS[dTic][Hyp](Et)R-OH) gave an inhibition constant (Ki) of 5.44 nM. Moreover, the Kb in data set [1] is 51.3 nM. Turning to `N=C(N)NCCC[C@@H](N)C(=O)N[C@@H](CCCNC(=N)N)C(=O)N1CCC[C@H]1C(=O)N1C[C@H](O)C[C@H]1C(=O)NCC(=O)N[C@@H](Cc1ccccc1)C(=O)N[C@@H](CO)C(=O)N1Cc2ccccc2C[C@@H]1C(=O)N1C[C@@H](Oc2ccccc2[N+](=O)[O-])C[C@H]1C(=O)N[C@@H](CCCNC(=N)N)C(=O)O` [D-Arg-Arg-Pro-4Hyp-Gly-Phe-Ser-D-Tic-(hydroxyproline cis 2-nitrophenyl ether)-Arg] (H-[dR]RP[Hyp]GFS[dTic][X2]R-OH), the Ki on bradykinin receptor was found to be 3.76 nM. For the same compound, the Kb in data set [1] is 141 nM. Take `N=C(N)NCCC[C@@H](N)C(=O)N[C@@H](CCCNC(=N)N)C(=O)N1CCC[C@H]1C(=O)N1C[C@H](O)C[C@H]1C(=O)NCC(=O)N[C@@H](Cc1ccccc1)C(=O)N[C@@H](CO)C(=O)N1Cc2ccccc2C[C@@H]1C(=O)N1C[C@@H](Oc2ccc([N+](=O)[O-])cc2)C[C@H]1C(=O)N[C@@H](CCCNC(=N)N)C(=O)O` [D-Arg-Arg-Pro-4Hyp-Gly-Phe-Ser-D-Tic-(hydroxyproline cis 4-nitrophenyl ether)-Arg] (H-[dR]RP[Hyp]GFS[dTic][X3]R-OH): at bradykinin receptor, the affinity, expressed as Ki, was 3.98 nM. Also, the Kb in data set [1] is 138 nM. `N=C(N)NCCC[C@@H](N)C(=O)N[C@@H](CCCNC(=N)N)C(=O)N1CCC[C@H]1C(=O)N1C[C@H](O)C[C@H]1C(=O)NCC(=O)N[C@@H](Cc1ccccc1)C(=O)N[C@@H](CO)C(=O)N1Cc2ccccc2C[C@@H]1C(=O)N1C[C@@H](OCC2CCCCC2)C[C@H]1C(=O)N[C@@H](CCCNC(=N)N)C(=O)O` [D-Arg-Arg-Pro-4Hyp-Gly-Phe-Ser-D-Tic-(hydroxyproline cis cyclohexylmethyl ether)-Arg] (H-[dR]RP[Hyp]GFS[dTic][cisHyp](Cyclohexylmethyl)R-OH) yielded a Ki on bradykinin receptor of 13.2 nM. With `CCO[C@H]1C[C@@H](C(=O)N[C@@H](CCCNC(=N)N)C(=O)O)N(C(=O)[C@H]2Cc3ccccc3CN2C(=O)[C@H](CO)NC(=O)[C@H](Cc2ccccc2)NC(=O)CNC(=O)[C@@H]2C[C@@H](O)CN2C(=O)[C@@H]2CCCN2C(=O)[C@H](CCCNC(=N)N)NC(=O)[C@H](N)CCCNC(=N)N)C1` [D-Arg-Arg-Pro-4Hyp-Gly-Phe-Ser-D-Tic-(hydroxyproline cis ethyl ether)-Arg] (H-[dR]RP[Hyp]GFS[dTic][cisHyp](Et)R-OH), the inhibition constant (Ki) on bradykinin receptor turned out to be 4.15 nM. Moreover, the Kb in data set [1] was 110 nM. Take `N=C(N)NCCC[C@@H](N)C(=O)N[C@@H](CCCNC(=N)N)C(=O)N1CCC[C@H]1C(=O)N1C[C@H](O)C[C@H]1C(=O)NCC(=O)N[C@@H](Cc1ccccc1)C(=O)N[C@@H](CO)C(=O)N1Cc2ccccc2C[C@@H]1C(=O)N1C[C@@H](Oc2ccccc2)C[C@H]1C(=O)N[C@@H](CCCNC(=N)N)C(=O)O` [D-Arg-Arg-Pro-4Hyp-Gly-Phe-Ser-D-Tic-(hydroxyproline cis phenyl ether)-Arg] (H-[dR]RP[Hyp]GFS[dTic][Pro(cis-4-OPh)]R-OH): affinity on bradykinin receptor was put at a Ki of 2.51 nM.

Compound `N=C(N)NCCC[C@@H](N)C(=O)N[C@@H](CCCNC(=N)N)C(=O)N1CCC[C@H]1C(=O)N1C[C@H](O)C[C@H]1C(=O)NCC(=O)N[C@@H](Cc1ccccc1)C(=O)N[C@@H](CO)C(=O)N1Cc2ccccc2C[C@@H]1C(=O)N1C[C@@H](Sc2ccccc2)C[C@H]1C(=O)N[C@@H](CCCNC(=N)N)C(=O)O` [D-Arg-Arg-Pro-4Hyp-Gly-Phe-Ser-D-Tic-(hydroxyproline cis phenyl thioether)-Arg] (H-[dR]RP[Hyp]GFS[dTic][X1]R-OH) displayed a Ki at bradykinin receptor of 0.06 nM. The Kb in data set [1] was 11.2 nM. The matching figures for `CCCO[C@H]1C[C@@H](C(=O)N[C@@H](CCCNC(=N)N)C(=O)O)N(C(=O)[C@H]2Cc3ccccc3CN2C(=O)[C@H](CO)NC(=O)[C@H](Cc2cccs2)NC(=O)CNC(=O)[C@@H]2C[C@@H](O)CN2C(=O)[C@@H]2CCCN2C(=O)[C@H](CCCNC(=N)N)NC(=O)[C@H](N)CCCNC(=N)N)C1` [D-Arg-Arg-Pro-4Hyp-Gly-Thi-Ser-D-Tic-(Hydroxyproline cis propyl ether)-Arg]: 1.58 nM and 224 nM. In turn, `N=C(N)NCCC[C@@H](N)C(=O)N[C@@H](CCCNC(=N)N)C(=O)N1CCC[C@H]1C(=O)N1C[C@H](O)C[C@H]1C(=O)NCC(=O)N[C@@H](Cc1cccs1)C(=O)N[C@@H](CO)C(=O)N1Cc2ccccc2C[C@@H]1C(=O)N1C[C@H](OC(=O)Nc2ccccc2)C[C@H]1C(=O)N[C@@H](CCCNC(=N)N)C(=O)O` [D-Arg-Arg-Pro-4Hyp-Gly-Thi-Ser-D-Tic-(Hydroxyproline trans phenyl carbamoyl)-Arg] yielded an inhibitory constant (Ki) on bradykinin receptor of 11.5 nM. In other words, the double-digit nanomolar range. For `CCCO[C@@H]1C[C@@H](C(=O)N[C@@H](CCCNC(=N)N)C(=O)O)N(C(=O)[C@H]2Cc3ccccc3CN2C(=O)[C@H](CO)NC(=O)[C@H](Cc2cccs2)NC(=O)CNC(=O)[C@@H]2C[C@@H](O)CN2C(=O)[C@@H]2CCCN2C(=O)[C@H](CCCNC(=N)N)NC(=O)[C@H](N)CCCNC(=N)N)C1` [D-Arg-Arg-Pro-4Hyp-Gly-Thi-Ser-D-Tic-(Hydroxyproline trans propyl ether)-Arg], the Ki on bradykinin receptor is 4.85 nM. Besides, the Kb in data set [1] was 138 nM. The matching figures for `CO[C@H]1C[C@@H](C(=O)N[C@@H](CCCNC(=N)N)C(=O)O)N(C(=O)[C@H]2Cc3ccccc3CN2C(=O)[C@H](CO)NC(=O)[C@H](Cc2cccs2)NC(=O)CNC(=O)[C@@H]2C[C@@H](O)CN2C(=O)[C@@H]2CCCN2C(=O)[C@H](CCCNC(=N)N)NC(=O)[C@H](N)CCCNC(=N)N)C1` [D-Arg-Arg-Pro-4Hyp-Gly-Thi-Ser-D-Tic-(hydroxyproline cis methyl ether)-Arg]: 1.83 nM and 141 nM. With “RPPGFSPFR [bradykinin, Arg-Pro-Pro-Gly-Phe-Ser-Pro-Phe-Arg]”, in data set [2], the “half life in the systemic circulation” value was “less than 30 seconds”. Further, in data set [3], the “destruction on a single passage through the pulmonary circulation” value is recorded as 98-99%.

These data come from US6288036A, “Bradykinin type peptides” (priority 1993, dated 2001).
